How the values were obtained:
[1] = system: model of sarcopenia caused by aging; assay: Aging animal model, 24-month-old mice, oxiracetam per concentration (Experimental Example 3); type: in vivo, C57BL/6J mice
Description: For an experimental group in the present invention, oxiracetam having a structure of Formula 1 was purchased from Tokyo Chemical Industry (Japan; Product No. 00398, CAS RN:62613-82-5, purity: 96%) and used.
As a model of sarcopenia caused by aging, 24-month-old male C57BL/6J mice were used. Until the day of the experiment, general feed (EEGJ30060: Cargill Agri Purina, Seongnam, Korea) and water were sufficiently supplied to the experimental animals, and the animals were acclimated for 1 week under an environment of a temperature of 23±2° C., a humidity of 55±10%, and a light-dark cycle of 12 hours-12 hours and used in the experiment.
The animals were randomly divided into groups of 10 animals, such as a control (vehicle, n=10), and 42, 83, 167, 333 mg/kg/day oxiracetam-administered groups (n=10 per concentration). To the oxiracetam-administered group, oxiracetam was orally administered using a Zonde needle for 93 days once a day at a dose of 42, 83, 167, or 333 mg/kg/day. During the same period, no drug was administered to the control group, and 100 μL of normal saline was orally administered at one time.
To measure grip strength, a grip strength test was performed. The maximum force presented when the forelimbs of an animal model of each group could no longer hold the rod by pulling the tail horizontally while holding the tail of the animal model and holding the rod of a device with both front paws was considered to be grip strength (N). The grip strength was measured once every 3 days, and after repeating five measurements at one time, the average value was shown. Grip strength adaptation training was performed at least three times before drug administration.
The lean body mass for the gastrocnemius muscle (GS) and tibialis anterior (TA) for each group was measured every 7 days. Specifically, animal models of each group were anesthetized using 3% isoflurane, fixed to a photographing bed, and then photographed. The respiration rates and temperatures of the animal models during photographing were measured using an animal monitoring system (SA Instruments, USA).
The whole body of the animal model was photographed through dual energy X-ray absorptiometry (DEXA) using iNSiGHT VET DXA (Osteosys, KR), and the lean body mass of each of the gastrocnemius muscle (GS) and the tibialis anterior (TA) was measured and calculated from the two-dimensional images of the gastrocnemius muscle (GS) and the tibialis anterior (TA) by a program using the region of interest (ROI).
Statistical processing was performed using GraphPad Prism (GraphPad Software Inc., San Diego, CA, USA). The results of each repeated experiment were expressed as mean±standard error of mean, and analyzed using the analysis of variance (Tukey's test), and statistical significance was acknowledged when the P-value was 0.05 or less.

C2C12 myotubes = assay: Myotube diameter in TNF-α muscular atrophy cell model (Experimental Example 7); type: cell-based, mouse
Method: A mouse-derived C2C12 cell line was provided from the American Type Culture Collection (ATCC, CRL-1772; Manassas, VA, USA) and cultured at 37° C. in 5% CO2. In the proliferation phase of the cells before differentiation, high concentration glucose Dulbecco's modified Eagle's medium (DMEM) containing 1% penicillin/streptomycin and 10% fetal bovine serum (FBS) medium were used, and in the differentiation induction, the FBS medium was replaced with a 2% horse serum (HS)-containing medium. The C2C12 myoblasts were seeded into a 96 well culture plate and a 6 well culture plate at 2×10^5/well and 5×10^3/well, respectively, and cultured at 37° C. in a CO2 incubator. When the confluency reached approximately 90%, the medium was replaced with 2% horse serum (HS)-containing DMEM to induce differentiation of myoblasts. After 5 days, the C2C12 myotubes that had differentiated were treated with 10 ng/ml TNF-α, which is an inflammatory factor, for 48 hours to cause myotube atrophy, thereby creating a muscular atrophy cell model, TNF-α-treated group (TNF-α). During the TNF-α treatment, 10 μM oxiracetam was treated to create an oxiracetam-treated group (Oxiracetam 10 μM), cells that were not treated during the same period were prepared as a control. Two days after TNF-α and oxiracetam treatment, each of the TNF-α-treated group (TNF-α), the oxiracetam-treated group (Oxiracetam 10 μM) and the control was treated with an ATP detection reagent at room temperature, and then luminescence was measured using a mitochondrial ToxGlo™ assay kit (Promega). In addition, the TNF-α-treated group (TNF-α), the oxiracetam-treated group (Oxiracetam 10 μM) and the control were photographed using an optical microscope and the diameter of a myotube cell in each group were measured and compared. Statistical processing was performed using GraphPad Prism (GraphPad Software Inc., San Diego, CA, USA).

[2] = Oxi 42, 83, 167 and 333 mg/kg/day, DEXA every 7 days, compared to control
[3] = Oxi 333 group (333 mg/kg/day), among dose groups

With `NC(=O)CN1CC(O)CC1=O` (racemic) [oxiracetam, (RS)-2-(4-hydroxy-2-oxopyrrolidin-1-yl)acetamide] the “dose dependence of the effect on grip strength” value ([1]; 42-333 mg/kg/day oral 93 days) was “increases in a concentration-dependent manner”, the “change in grip strength (decrease in grip strength)” value ([1]; Oxi 42, 83, 167 and 333 mg/kg/day oral 93 days, versus control (vehicle)) was “significantly inhibited and rather increased” and the “lean body mass of the gastrocnemius muscle (GS)” value [1, 2] was “rather significantly increased”. The “lean body mass of the tibialis anterior (TA)” value [1, 2] was “rather significantly increased”, the “lean body mass of the gastrocnemius muscle (GS)” value [1, 3] was “greatest increase” and the “lean body mass of the tibialis anterior (TA)” value [1, 3] was “greatest increase”. For the same compound, the “diameter of a myotube” value (C2C12 myotubes; TNF-α 10 ng/ml 48 h + oxiracetam 10 μM, compared to TNF-α-treated group) was “significant increase” and the “diameter of a myotube relative to control” value (C2C12 myotubes; TNF-α 10 ng/ml 48 h with oxiracetam 10 μM or 0 μM, relative to non-treated control) was “recovers to a level similar to the control”.
